From ChEMBL document CHEMBL5537149, “Design, synthesis, and lead optimization of piperazinyl-pyrimidine analogues as potent small molecules targeting the viral capping machinery of Chikungunya virus” (Eur J Med Chem, 2024)
In brackets after ≈: the same amount, converted by molar mass. Activity calls are given as the source filed them. The calls are words filed in the database; no cut-off is given here.

Experiments:
Caco-2 [1] = test: Cytotoxicity against human Caco-2 cells incubated for 24 to 72 hrs by MTT assay; assay type: toxicity, cell-based; details: time 24-72 hrs
Chikungunya virus [2] = test: Antiviral activity against Chikungunya virus infected in African green monkey Vero cells assessed as reduction in viral induced cell death incubated for 5 days by MTS reagent based absorbance method; assay type: functional, organism-based; details: 120 h
[3] = Cytotoxicity against African green monkey Vero cells assessed as reduction in overall metabolic activity incubated for 5 days by MTS reagent based absorbance method; assay type: toxicity, cell-based; details: chlorocebus sabaeus, time 5 day
[4] = Selectivity index, ratio of CC50 for cytotoxicity against African green monkey Vero cells to EC50 for antiviral activity against Chikungunya virus infected in African green monkey Vero cells assessed as reduction in viral induced cell death; assay type: toxicity, cell-based; details: read-out: Ratio CC50/EC50
[5] = Metabolic stability in human liver microsomes assessed as half-life preincubated for 5 mins followed by NADPH addition and measured upto 60 mins by HPLC-MS/MS analysis; assay type: ADME, Microsome; details: time < 65 min
[6] = Aqueous solubility of compound at pH 7.4 by HPLC analysis; assay type: physicochemical
Chikungunya virus [7] = test: Antiviral activity against Chikungunya virus 899 infected in African green monkey Vero cells assessed as reduction in viral RNA replication preincubated for 2 hrs with subsequent viral infected followed by media replacement with compound and measured after 48 hrs by qRT-PCR analysis; assay type: functional, organism-based; details: dose 0.25-60 µM, time 50.0 hrs
Chikungunya virus [8] = test: Fold resistance , ratio of EC50 for antiviral activity against CHVB-resistant Chikungunya virus infected in African green monkey Vero cells to EC50 for antiviral activity against wildtype Chikungunya virus 899 infected in African green monkey Vero cells; assay type: functional
[9] = Metabolic stability in human liver microsomes assessed as parent compound remaining preincubated for 5 mins followed by NADPH addition and measured upto 60 mins by HPLC-MS/MS analysis; assay type: ADME, Microsome; details: time < 65 min, read-out: Stability
Caco-2 [10] = test: Induction of apoptosis in human Caco-2 cells assessed as increase in caspase-3 expression at 6.25 to 100 uM incubated for 72 hrs by Western blot analysis; assay type: toxicity, cell-based; details: caco-2, 72 h, dose 6.25-100 µM
Caco-2 [11] = test: Induction of apoptosis in human Caco-2 cells assessed as increase in PARP expression at 6.25 to 100 uM incubated for 72 hrs by Western blot analysis; assay type: toxicity, cell-based; details: caco-2, 72 h, dose 6.25-100 µM
Semliki Forest virus = test: Antiviral activity against Semliki forest virus infected in African green monkey Vero cells assessed as reduction in virus induced cell death; assay type: functional, organism-based
Sindbis virus = test: Antiviral activity against Sindbis virus HRsp infected in African green monkey Vero cells assessed as reduction in virus induced cell death; assay type: functional, organism-based
Enterovirus = test: Antiviral activity against Human enterovirus 71 infected in African green monkey Vero cells assessed as reduction in virus induced cell death; assay type: functional, organism-based
Zika virus = test: Antiviral activity against Zika virus infected in African green monkey Vero cells assessed as reduction in virus induced cell death; assay type: functional, organism-based
hERG (KCNH2) = hERG (KCNH2) (Homo sapiens, UniProt Q12809); test: Inhibition of hERG in Xenopus laevis Oocytes upto 30 uM incubated for 10 mins by patch-clamp method relative to control; assay type: cell-based, Oocyte; details: Xenopus laevis oocytes expressing hERG
Chain of hERG (KCNH2) (Q12809 whole entry): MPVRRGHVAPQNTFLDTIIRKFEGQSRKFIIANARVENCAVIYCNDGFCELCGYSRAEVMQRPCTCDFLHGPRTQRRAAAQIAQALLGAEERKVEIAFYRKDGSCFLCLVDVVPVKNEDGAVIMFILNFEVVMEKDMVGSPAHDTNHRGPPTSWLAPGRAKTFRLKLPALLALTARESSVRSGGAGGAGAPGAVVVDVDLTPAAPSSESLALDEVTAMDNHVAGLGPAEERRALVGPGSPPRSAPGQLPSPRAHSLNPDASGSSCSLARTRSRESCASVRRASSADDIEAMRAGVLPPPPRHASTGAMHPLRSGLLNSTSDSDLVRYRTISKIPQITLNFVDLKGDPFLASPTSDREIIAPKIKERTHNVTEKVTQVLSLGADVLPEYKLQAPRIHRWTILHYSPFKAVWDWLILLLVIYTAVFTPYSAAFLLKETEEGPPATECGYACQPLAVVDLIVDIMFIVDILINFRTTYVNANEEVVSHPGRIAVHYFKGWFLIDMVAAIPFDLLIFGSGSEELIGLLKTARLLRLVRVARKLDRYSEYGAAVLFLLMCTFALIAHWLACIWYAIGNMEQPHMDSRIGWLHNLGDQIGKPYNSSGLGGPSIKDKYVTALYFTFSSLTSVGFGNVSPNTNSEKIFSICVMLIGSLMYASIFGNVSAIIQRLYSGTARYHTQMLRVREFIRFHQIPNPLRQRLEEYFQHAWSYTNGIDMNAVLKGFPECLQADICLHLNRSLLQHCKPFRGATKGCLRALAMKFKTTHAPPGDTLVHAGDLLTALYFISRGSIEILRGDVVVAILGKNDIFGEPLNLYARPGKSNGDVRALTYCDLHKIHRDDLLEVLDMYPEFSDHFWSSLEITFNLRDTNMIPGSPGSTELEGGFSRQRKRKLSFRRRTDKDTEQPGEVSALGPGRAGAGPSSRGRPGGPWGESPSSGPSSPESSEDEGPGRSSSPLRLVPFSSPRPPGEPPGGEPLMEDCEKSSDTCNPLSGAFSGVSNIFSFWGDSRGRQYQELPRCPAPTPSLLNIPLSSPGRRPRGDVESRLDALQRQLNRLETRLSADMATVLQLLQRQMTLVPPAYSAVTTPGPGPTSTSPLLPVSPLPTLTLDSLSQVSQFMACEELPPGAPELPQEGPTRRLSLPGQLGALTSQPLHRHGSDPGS

CCNc1nc(C)cc(N2CCN(C(=O)c3ccc([N+](=O)[O-])cc3)CC2)n1
Activity (Caco-2 [1]): Non-Toxic
EC50 (Chikungunya virus [2]): 0.91 µM
CC50 at 120 h [3]: > 100 µM
selectivity ratio [4]: > 110
half-life [5]: > 1 h
solubility [6]: > 120 µM
Activity (Chikungunya virus [7]): Dose-Dependent Effect
Ratio EC50 (Chikungunya virus [8]): 14
remaining at 1 h [9]: 100%
Activity (Caco-2 [10]): Non-Toxic
Activity (Caco-2 [11]): Non-Toxic

O=S(=O)(c1ccc(F)cc1)N1CCN(c2ncccn2)CC1
EC50 (Chikungunya virus [2]): 310 µM
solubility [6]: 64 µM (≈ 20.6 µg/mL)
Activity (Semliki Forest virus): inactive
Activity (Sindbis virus): inactive
Activity (Enterovirus): inactive
Activity (Zika virus): inactive
inhibition at 10 min, up to 30 µM (hERG (KCNH2)): 9.63%
